Reference: patent US8232313B2 (Georgia Health Sciences University, priority 2003, dated 2012)
Entries after “also recorded” stand apart in the source; their conditions may differ.

How the values were obtained:
[1] = test system: Lewis Lung carcinoma (LLC); details: administration of 1-MT; cited from earlier work
B16F10 melanomas = experiment: Established B16F10 melanoma in mice, 1MT with radiation or cyclophosphamide; type: in vivo, mouse
Description: FIGS. 11A-11D. Administration of 1-MT enhances immune-mediated host anti-tumor effect when administered with radiation or cyclophosphamide. Mice were injected subcutaneously (SQ) with 4×10^4 B16F10 cells. […] Control mice received vehicle pellets without drug.
Not unexpected, given that the tumor had already been allowed to create tolerance in the host.

IDO [2] = experiment: Recall MLR of LN cells from recipients of TDLN DCs, 1MT added to the MLR; details: responders from recipients of TDLN DCs
Description: Inguinal LN cells from recipient mice were assayed for functional responsiveness using MLRs stimulated by irradiated C57BL/6 (H-2K^b-positive) splenocytes.

[3] = Pilot tissue biodistribution of D and L isomers after DL racemic infusion; type: in vivo, Mice; details: DL racemic 10 mg/day, 72 hour infusion
From the text: The results noted with spleen are particularly relevant because it is a lymphoid organ, and thus likely to be similar to tumor-draining lymph nodes.

[4] = Comparative plasma pharmacokinetics of the stereoisomers of 1-MT; type: in vivo, mice; details: for time to peak plasma concentrations: after PO administration, 50 mg/kg
Description: Comparative pharmacokinetic studies were initiated to characterize the in vivo disposition of the stereoisomers of 1-MT when administered by different routes, to determine the oral bioavailability, and to define the plasma concentrations associated with effective dosing regimens. Studies were conducted in conventional mice after IV, PO and SC doses of 50 mg/kg, and IP doses of 25 mg/kg, 50 mg/kg, and 100 mg/kg. In addition, plasma concentrations of 1-MT were determined in nude mice with implanted timed-release pellets designed to release the DL isomer for 7 days, and the D isomer for 14 days.

[5] = target: indoleamine 2,3-dioxygenase (IDO) (Homo sapiens, UniProt P14902); experiment: Allogeneic mixed-leukocyte reaction (MLR) with IDO-expressing human DCs, T cell proliferation by thymidine incorporation; details: 250 uM in culture medium
Chain of indoleamine 2,3-dioxygenase (IDO) (P14902 whole entry): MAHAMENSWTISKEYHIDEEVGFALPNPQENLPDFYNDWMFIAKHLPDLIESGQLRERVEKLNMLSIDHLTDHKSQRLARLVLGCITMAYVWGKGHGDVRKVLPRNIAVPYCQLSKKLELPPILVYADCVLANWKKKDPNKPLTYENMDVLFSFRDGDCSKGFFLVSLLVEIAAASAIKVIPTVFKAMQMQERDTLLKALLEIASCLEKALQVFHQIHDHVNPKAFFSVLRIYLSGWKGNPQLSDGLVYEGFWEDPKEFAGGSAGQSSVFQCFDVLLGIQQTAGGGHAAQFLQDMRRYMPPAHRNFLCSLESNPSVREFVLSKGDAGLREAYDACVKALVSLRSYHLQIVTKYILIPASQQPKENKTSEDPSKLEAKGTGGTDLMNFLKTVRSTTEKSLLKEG
Description: After five days, proliferation was measured by four hour thymidine incorporation assay. “V”-bottom culture wells (Nunc) were used in MLR assays to maximize cell-cell contact.
DCs were used as stimulators in allogeneic mixed-leukocyte reactions (MLRs), with allogeneic lymphocytes as responder cells.

IDO [6] = target: IDO (Mus musculus, UniProt P28776); experiment: MLR with sorted tumor-draining LN cells (pDCs) as stimulators and BM3 responder T cells; details: 250 uM
Chain of IDO (Mus musculus, UniProt P28776) (P28776 whole entry): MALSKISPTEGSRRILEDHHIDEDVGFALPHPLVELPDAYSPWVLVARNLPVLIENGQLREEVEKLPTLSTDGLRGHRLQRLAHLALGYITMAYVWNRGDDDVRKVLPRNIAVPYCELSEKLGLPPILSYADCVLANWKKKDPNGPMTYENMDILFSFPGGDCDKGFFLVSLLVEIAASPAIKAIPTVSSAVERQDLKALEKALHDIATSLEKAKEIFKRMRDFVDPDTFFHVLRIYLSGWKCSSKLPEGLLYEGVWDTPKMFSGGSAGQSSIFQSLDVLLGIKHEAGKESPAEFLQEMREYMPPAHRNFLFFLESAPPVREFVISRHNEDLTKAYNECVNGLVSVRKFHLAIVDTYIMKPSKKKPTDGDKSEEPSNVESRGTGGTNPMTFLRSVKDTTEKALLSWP
Description: T cell activation in MLR. BM3 responder T cells were prepared from spleen by nylon-wool enrichment. Stimulators (sorted DCs or unfractionated TDLN) were mixed with 1×10^5 BM3 responder cells in 200 ul IMDM at the ratios shown in each figure. After 3 days, proliferation was measured by 4-hour thymidine incorporation assay.
MLRs were thus “two-way” reactions. However, the small number of sorted DCs used as stimulators contributed negligible proliferation compared to the large population of TCR-transgenic responder cells. Since the relevant readout was dominant suppression, the two-way MLR design presented no problem in interpretation.
Pooled draining LN cells (4 nodes) were stained and fractionated by 4-color MoFlo cell sorting for the two populations shown in the schematic of FIG. 5B. All other cells were collected in a third fraction. Each fraction was then used as stimulators in MLRs, using 50,000 BM3 T cells as responders. The number of stimulators used in each MLR was adjusted to be the same as would have been present in 50,000 cells of the original LN preparation, based on the measured percentage of each sorted fraction. Thus, 500 cells of the sorted B220^+ CD11c^+ fraction were added per well, and 1500 cells of the CD25^+ CD4^+ fraction, while 48,000 cells of the “all other” fraction were used.

Compound: Cn1cc(C[C@H](N)C(=O)O)c2ccccc21 (racemic) [1MT, 1-methyl-tryptophan]
- tumor outgrowth [1]: significantly delayed
- tumor growth, 1MT with total-body radiation (B16F10 melanomas; DL racemic 20 mg/day plus 500 cGy single dose): significantly reduce tumor growth
- tumor growth, 1MT with cyclophosphamide (B16F10 melanomas; DL racemic 20 mg/day plus cyclophosphamide 150 mg/kg x 1 dose): significantly reduce tumor growth
- effect of 1MT alone on established tumor (B16F10 melanomas; DL racemic form, 20 mg per mouse per day, SQ pellets, from day 7): no effect
- effect of 1MT over cyclophosphamide alone in RAG1-knockout hosts (B16F10 melanomas; immunodeficient (RAG1-knockout) hosts): no enhancing effect
- effect of 1MT alone, replicated radiation studies (B16F10 melanomas; replicate of FIG. 11A design): no effect
- effect of 1MT on suppression in recall MLRs (IDO [2]): no effect; also recorded: not restored

Compound: Cn1cc(C[C@@H](N)C(=O)O)c2ccccc21 [1-methyl-D-tryptophan]
- distribution into muscle, D and L isomers [3]: equivalent distribution
- distribution into spleen, D and L isomers [3]: equivalent distribution
- level in brain, D versus L isomer [3]: lower levels
- level in plasma, D versus L isomer [3]: lower levels
- accumulation in liver, D versus L isomer ([3]; SQ pellets, initial results): at least equal, and possibly preferential, accumulation
- effect of combination with radiation versus radiation alone, replicated studies (B16F10 melanomas; replicate of FIG. 11A design): enhanced effect over radiation alone
- time to peak plasma concentrations [4]: 2 h
- apparent volume of distribution ([4]; relative to L isomer): relatively greater

Compound: Cn1cc(C[C@H](N)C(=O)O)c2ccccc21 [L 1-MT, reference compound]
- time to peak plasma concentrations [4]: 2 h

Compound: N[C@@H](Cc1c[nH]c2ccccc12)C(=O)O [L-tryptophan]
- DC-mediated inhibition of T cell proliferation on addition of supra-physiologic tryptophan [5]: completely reversed
- suppression by pDCs with excess L-tryptophan (IDO [6]; 10x): abrogated; also recorded: abrogates suppression
- effect of 10x L-tryptophan with pDCs from IDO-knockout hosts (IDO [6]; IDO-KO): no effect
